What was measured:
Format in all cases: cell-based
adenosine 1 = target: T1, adenosine 1 (Homo sapiens, UniProt P30542); test: Agonist activity against adenosine receptor subtypes, CHO cells with cAMP response element/SPAP reporter (forskolin-enhanced cAMP); conditions: ratio to EC50 of NECA; transfected CHO cells; effect on forskolin-enhanced cAMP via SPAP
T1 sequence (P30542 1-326): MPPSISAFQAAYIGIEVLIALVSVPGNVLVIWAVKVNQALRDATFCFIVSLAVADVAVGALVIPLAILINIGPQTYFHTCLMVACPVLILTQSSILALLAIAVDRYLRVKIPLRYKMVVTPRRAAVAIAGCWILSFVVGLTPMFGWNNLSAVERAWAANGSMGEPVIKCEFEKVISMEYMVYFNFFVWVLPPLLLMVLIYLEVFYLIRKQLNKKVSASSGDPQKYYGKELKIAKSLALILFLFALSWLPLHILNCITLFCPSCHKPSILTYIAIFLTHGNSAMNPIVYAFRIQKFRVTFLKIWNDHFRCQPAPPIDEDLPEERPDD
Description: (§1) Compounds of the invention were tested for in vitro and in vivo biological activity in accordance with the following screens: • (1) Agonist activity against adenosine 2a, adenosine 1 and adenosine 3 receptor subtypes.
(§2) Agonist selectivity of compounds against other human adenosine receptors was determined using Chinese hamster ovary (CHO) cells transfected with the gene for the relevant human adenosine receptor following a method based on that of Castanon and Spevak, 1994 . The CHO cells were also transfected with cyclic AMP response elements promoting the gene for secreted placental alkaline phosphatase (SPAP) (Wood, 1995). The effect of test compounds was determined by their effects on basal levels of cAMP (A2a) or on forskolin-enhanced cAMP (A1 and A3) as reflected by changes in levels of SPAP. EC50 values for compounds were then determined as a ratio to that of the non-selective agonist N-ethyl carboxamide adenosine (NECA).

adenosine 3 = target: T2, adenosine 3 (Homo sapiens, UniProt P0DMS8); test: as above; conditions: ratio to EC50 of NECA; transfected CHO cells; effect on forskolin-enhanced cAMP via SPAP
T2 sequence (P0DMS8 1-318): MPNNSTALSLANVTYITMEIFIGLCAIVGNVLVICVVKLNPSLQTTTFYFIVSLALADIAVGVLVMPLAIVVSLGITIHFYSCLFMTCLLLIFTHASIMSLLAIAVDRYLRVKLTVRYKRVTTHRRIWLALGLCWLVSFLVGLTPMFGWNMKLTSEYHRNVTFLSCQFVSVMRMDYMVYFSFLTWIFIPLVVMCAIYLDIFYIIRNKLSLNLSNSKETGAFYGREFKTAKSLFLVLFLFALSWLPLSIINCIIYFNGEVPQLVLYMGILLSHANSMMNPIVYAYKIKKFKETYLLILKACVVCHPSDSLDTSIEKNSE
Description: as §1, §2

adenosine 2a = adenosine 2a (Homo sapiens, UniProt P29274); test: Agonist activity against adenosine receptor subtypes, CHO cells with cAMP response element/SPAP reporter (basal cAMP); conditions: ratio to EC50 of NECA; transfected CHO cells; effect on basal cAMP via SPAP
Description: as §1, §2

adenosine 2a, sequence (P29274 whole entry): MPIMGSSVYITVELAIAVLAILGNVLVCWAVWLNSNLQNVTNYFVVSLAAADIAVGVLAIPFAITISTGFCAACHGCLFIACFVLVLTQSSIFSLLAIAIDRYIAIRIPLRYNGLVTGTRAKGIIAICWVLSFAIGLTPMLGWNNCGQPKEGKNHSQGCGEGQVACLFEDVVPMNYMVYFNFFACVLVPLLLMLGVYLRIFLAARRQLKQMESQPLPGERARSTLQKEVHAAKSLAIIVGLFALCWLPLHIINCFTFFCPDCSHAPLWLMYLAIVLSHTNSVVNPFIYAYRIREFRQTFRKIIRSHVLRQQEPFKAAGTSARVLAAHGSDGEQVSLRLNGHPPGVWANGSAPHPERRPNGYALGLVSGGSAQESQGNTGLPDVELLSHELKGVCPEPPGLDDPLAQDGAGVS

Compound	A1 (EC50 values as a ratio of that of NECA) (adenosine 1)	A3 (EC50 values as a ratio of that of NECA) (adenosine 3)	A2a (EC50 values as a ratio of that of NECA) (adenosine 2a)
CCc1nnc([C@H]2O[C@@H](n3cnc4c(NCC(c5ccccc5)c5ccccc5)nc(NCCN5CCOCC5)nc43)[C@H](O)[C@@H]2O)[nH]1.O=CO [Example 8, (2R,3R,4S,5R)-2-[6-(2,2-Diphenyl-ethylamino)-2-(2-morpholin-4-yl-ethylamino)-purin-9-yl]-5-(5-ethyl-4H-[1,2,4]triazol-3-yl)-tetrahydro-furan-3,4-diol formate]	>10735	>183	19.4
CCc1nc([C@H]2O[C@@H](n3cnc4c(NCC(c5ccccc5)c5ccccc5)nc(NCCN5CCCCC5)nc43)[C@H](O)[C@@H]2O)no1.O=CO [Example 14, (2R,3R,4S,5R)-2-[6-(2,2-Diphenyl-ethylamino)-2-(2-piperidin-1-yl-ethylamino)-purin-9-yl]-5-(5-ethyl-[1,2,4]oxadiazol-3-yl)-tetrahydro-furan-3,4-diol formate]	>=4762	>190	12.86
Cc1nnc([C@H]2O[C@@H](n3cnc4c(NCC(c5ccccc5)c5ccccc5)nc(N[C@H]5CC[C@H](N)CC5)nc43)[C@H](O)[C@@H]2O)[nH]1.O=CO [Example 4, (2R,3R,4S,5R)-2-[2-(trans-4-Amino-cyclohexylamino)-6-(2,2-diphenyl-ethylamino)-purin-9-yl]-5-(5-methyl-4H-[1,2,4]triazol-3-yl)-tetrahydro-furan-3,4-diol formate]	4686	>1052	5.1
CCc1nc([C@H]2O[C@@H](n3cnc4c(NCC(c5ccccc5)c5ccccc5)nc(NCCN5CCOCC5)nc43)[C@H](O)[C@@H]2O)no1.O=CO [Example 15, (2R,3R,4S,5R)-2-[6-(2,2-Diphenyl-ethylamino)-2-(2-morpholin-4-yl-ethylamino)-purin-9-yl]-5-(5-ethyl-[1,2,4]oxadiazol-3-yl)-tetrahydro-furan-3,4-diol formate]	>=8649	>190	13.62
(2R,3R,4S,5S)-2-[6-(2,2-Diphenyl-ethylamino)-2-(2-piperidin-1-yl-ethylamino)-purin-9-yl]-5-[5-methyl-[1,3,4]thiadiazol-2-yl)-tetrahydro-furan-3,4-diol diformate [Example 28]	3371	>245	37.3
CCC(CC)Nc1nc(N[C@H](CO)C(C)C)nc2c1ncn2[C@@H]1O[C@H](c2nnc(C3CC3)o2)[C@@H](O)[C@H]1O.O=CO [Example 42, (2R,3R,4S,5S)-2-[6-(1-Ethyl-propylamino)-2-(1S-hydroxymethyl-2-methyl-propylamino)-purin-9-yl]-5-(5-cyclopropyl-[1,3,4]oxadiazol-2-yl)-tetrahydro-furan-3,4-diol formate]	306.9	>87	41.04
CCc1nnc([C@H]2O[C@@H](n3cnc4c(NCC(c5ccccc5)c5ccccc5)nc(NCCN5CCCCC5)nc43)[C@H](O)[C@@H]2O)o1.O=CO [Example 22, (2R,3R,4S,5S)-2-[6-(2,2-Diphenyl-ethylamino)-2-(2-piperidin-1-yl-ethylamino)-purin-9-yl]-5-(5-ethyl-[1,3,4]oxadiazol-2-yl)-tetrahydro-furan-3,4-diol formate]	101.96	>180	12.28
CCn1cnc(C2OC(n3cnc4c(NCC(c5ccccc5)c5ccccc5)nc(NC5CCC(N)CC5)nc43)C(O)C2O)n1.O=CO.O=CO [Example 30, (2R,3R,4S,5R)-2-[2-(trans-4-Amino-cyclohexylamino)-6-(2,2-diphenyl-ethylamino)-purin-9-yl]-5-(1-ethyl-1H-[1,2,4]triazol-3-yl)-tetrahydro-furan-3,4-diol diformate]	2948.1	>206	13.27
Cc1cnc([C@H]2O[C@@H](n3cnc4c(NCCC5CCCCC5)nc(N[C@H](CO)Cc5ccccc5)nc43)[C@H](O)[C@@H]2O)o1.O=CO [Example 17, (2R,3R,4S,5S)-2-[6-(2-Cyclohexyl-ethylamino)-2-(1S-hydroxymethyl-2-phenyl-ethylamino)-purin-9-yl]-5-(5-methyl-oxazol-2-yl)-tetrahydro-furan-3,4-diol formate]	538	>518	5.45
CC(C)c1nnc([C@H]2O[C@@H](n3cnc4c(NCC(c5ccccc5)c5ccccc5)nc(N[C@H]5CC[C@H](N)CC5)nc43)[C@H](O)[C@@H]2O)[nH]1.O=CO [Example 10, (2R,3R,4S,5R)-2-[2-(trans-4-Amino-cyclohexylamino)-6-(2,2-diphenyl-ethylamino)-purin-9-yl]-5-(5-isopropyl-4H-[1,2,4]triazol-3-yl)-tetrahydro-furan-3,4-diol formate]	1453.5	>326	16.85
Cc1nnc([C@H]2O[C@@H](n3cnc4c(NCC(c5ccccc5)c5ccccc5)nc(NCCc5cn(C)cn5)nc43)[C@H](O)[C@@H]2O)[nH]1.O=CO [Example 3, (2R,3R,4S,5R)-2-{6-(2,2-Diphenyl-ethylamino)-2-[2-(1-methyl-1H-imidazol-4-yl)-ethylamino]-purin-9-yl}-5-(5-methyl-4H-[1,2,4]triazol-3-yl)-tetrahydro-furan-3,4-diol formate]	>9058	>698	3.54
CC(C)c1nnc([C@H]2O[C@@H](n3cnc4c(NCC(c5ccccc5)c5ccccc5)nc(N[C@H](CO)Cc5ccccc5)nc43)[C@H](O)[C@@H]2O)[nH]1.O=CO [Example 11, (2R,3R,4S,5R)-2-[6-(2,2-Diphenyl-ethylamino)-2-(1S-hydroxymethyl-2-phenyl-ethylamino)-purin-9-yl]-5-(5-isopropyl-4H-[1,2,4]triazol-3-yl)-tetrahydro-furan-3,4-diol formate]	2202	>257	17.97
